Experiment: xn = mol fraction of the nth substance listed, in the solute-free solvent

c1ccc2c(c1)CCc1ccccc1N2 + CC(C)O + O
solubility (g/100 g solution)
Conditions | 283.15 K | 288.15 K | 293.15 K | 298.15 K | 303.15 K | 308.15 K | 313.15 K | 318.15 K | 323.15 K | 328.15 K
x2 = 0.03176 | 0.0176 | 0.0251 | 0.0346 | 0.0488 | 0.0604 | 0.0841 | 0.111 | 0.148 | 0.194 | 0.252
x2 = 0.0697 | 0.0729 | 0.101 | 0.136 | 0.186 | 0.24 | 0.32 | 0.411 | 0.527 | 0.674 | 0.851
x2 = 0.1134 | 0.12 | 0.164 | 0.22 | 0.296 | 0.38 | 0.499 | 0.636 | 0.808 | 1.02 | 1.28
x2 = 0.1667 | 0.119 | 0.156 | 0.212 | 0.286 | 0.384 | 0.504 | 0.625 | 0.779 | 0.979 | 1.22
x2 = 0.2299 | 0.126 | 0.162 | 0.214 | 0.281 | 0.369 | 0.484 | 0.601 | 0.762 | 0.947 | 1.18
x2 = 0.3101 | 0.114 | 0.153 | 0.205 | 0.27 | 0.348 | 0.452 | 0.575 | 0.726 | 0.915 | 1.14
x2 = 0.4103 | 0.132 | 0.176 | 0.237 | 0.308 | 0.396 | 0.511 | 0.648 | 0.814 | 1.02 | 1.27
x2 = 0.5463 | 0.168 | 0.221 | 0.295 | 0.38 | 0.487 | 0.622 | 0.771 | 0.958 | 1.18 | 1.47
x2 = 0.7321 | 0.172 | 0.219 | 0.296 | 0.374 | 0.48 | 0.613 | 0.778 | 0.975 | 1.22 | 1.51

Nc1cc(-c2ccncc2)c[nH]c1=O + CCO + O
solubility (g/100 g solution)
Conditions | 278.15 K | 283.15 K | 288.15 K | 293.15 K | 298.15 K | 303.15 K | 308.15 K | 313.15 K | 318.15 K | 323.15 K
x2 = 0.04165 | 0.00114 | 0.00134 | 0.00159 | 0.00187 | 0.00218 | 0.00251 | 0.00288 | 0.00327 | 0.00372 | 0.00424
x2 = 0.08908 | 0.00176 | 0.00207 | 0.00246 | 0.00288 | 0.00334 | 0.00384 | 0.0044 | 0.00498 | 0.00565 | 0.00642
x2 = 0.1436 | 0.00254 | 0.00304 | 0.00354 | 0.00413 | 0.00483 | 0.00549 | 0.00631 | 0.00722 | 0.00814 | 0.00941
x2 = 0.2068 | 0.00365 | 0.00427 | 0.00505 | 0.00593 | 0.00696 | 0.00785 | 0.009 | 0.0101 | 0.0116 | 0.0132
x2 = 0.2812 | 0.00514 | 0.00605 | 0.00709 | 0.0083 | 0.00956 | 0.0109 | 0.0125 | 0.014 | 0.0158 | 0.0179
x2 = 0.3698 | 0.0062 | 0.00747 | 0.00879 | 0.0103 | 0.0119 | 0.0137 | 0.0156 | 0.0178 | 0.0203 | 0.023
x2 = 0.4772 | 0.00811 | 0.00922 | 0.0108 | 0.0129 | 0.0146 | 0.0167 | 0.0193 | 0.0219 | 0.0247 | 0.0282
x2 = 0.6101 | 0.00938 | 0.0112 | 0.013 | 0.0153 | 0.0176 | 0.0202 | 0.0231 | 0.0259 | 0.029 | 0.033
x2 = 0.7788 | 0.0106 | 0.0125 | 0.0148 | 0.0174 | 0.0202 | 0.0229 | 0.026 | 0.0294 | 0.0329 | 0.0368

Nc1ncn(C2OC(CO)C(O)C2O)c(=O)n1 (stereo unspecified) + O + CCO
solubility (g/100 g solution)
Conditions | 278.15 K | 283.15 K | 288.15 K | 293.15 K | 298.15 K | 303.15 K | 308.15 K | 313.15 K | 318.15 K
x2 = 0.3899 | 0.0889 | 0.101 | 0.115 | 0.133 | 0.153 | 0.177 | 0.206 | 0.238 | 0.275
x2 = 0.6302 | 0.186 | 0.217 | 0.255 | 0.298 | 0.349 | 0.406 | 0.469 | 0.538 | 0.618
x2 = 0.7932 | 0.302 | 0.369 | 0.443 | 0.524 | 0.614 | 0.709 | 0.813 | 0.924 | 1.05
x2 = 0.9109 | 0.498 | 0.588 | 0.704 | 0.836 | 0.976 | 1.12 | 1.28 | 1.46 | 1.65
